The values below are quoted from earlier work in patent publication US20130071435A1, “NOVEL HERBAL FORMULATION FOR THE MODULATION OF IMMUNE SYSTEM OF HIV INFECTED PATIENTS AND A PROCESS OF PREPARATION THEREOF” (Sunil Kumar Swamy Rajan and Arun Kumar Swamy Rajan, priority 2011, published 2013).

For this data set the following is noted: experimental, in-vitro and in-vivo studies.

As for sitoindoside 1×, the immuno-potentiating activity result is on record as “significant immuno-potentiating activity”.
Regarding sitoindoside ×, the immuno-potentiating activity result was “significant immuno-potentiating activity”.
